From US20240383915A1, “OXAZEPINE COMPOUNDS AND USES THEREOF IN THE TREATMENT OF CANCER” (Genentech, Inc., priority 2021, published 2024)

Tests used:
KRas(G12V) = KRas(G12V) (Homo sapiens (Human), UniProt P01116, G12V); experiment: KRas(G12V) GDP HTRF (BODIPY-GDP exchange TR-FRET); assay type: biochemical
KRas = KRas (Homo sapiens (Human), UniProt P01116); experiment: KRas GDP HTRF (BODIPY-GDP exchange TR-FRET); assay type: biochemical
Method: KRAS Biochemical Assay—BODIPY-GDP Exchange TR-FRET. Biochemical compound potencies were assessed by evaluating inhibition of SOS1-mediated nucleotide exchange in KRAS G12D. The SOS1-promoted exchange of fluorescently-labeled GDP (BODIPY-GDP) was monitored by time-resolved fluorescence resonance energy transfer (TR-FRET). Compounds solubilized in DMSO were dispensed as concentration series into 384-well white assay plates. […] The reaction was initiated with the addition of 5 μL of 3 nM recombinant human SOS1 and 300 nM BODIPY-GDP in assay buffer. After a 60-minute incubation, the fluorescence was measured with excitation at 337 nm and emission at 490 and 520 nm. The TR-FRET ratio was determined as the fluorescence at 520 nm divided by the fluorescence at 490 nm multiplied by 10,000. […] The normalized TR-FRET results were plotted against compound concentration, and the data fit to a 4-parameter Hill equation to determine the IC50 values.

Sequence of KRas(G12V) (P01116-2 other isoform, or with tags, fused parts or gaps G12V): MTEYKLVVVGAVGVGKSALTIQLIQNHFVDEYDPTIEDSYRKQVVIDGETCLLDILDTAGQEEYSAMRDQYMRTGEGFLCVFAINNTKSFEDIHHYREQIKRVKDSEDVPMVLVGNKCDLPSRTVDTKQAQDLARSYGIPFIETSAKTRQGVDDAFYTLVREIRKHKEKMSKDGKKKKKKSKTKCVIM
Sequence of KRas (P01116-2 other isoform, or with tags, fused parts or gaps): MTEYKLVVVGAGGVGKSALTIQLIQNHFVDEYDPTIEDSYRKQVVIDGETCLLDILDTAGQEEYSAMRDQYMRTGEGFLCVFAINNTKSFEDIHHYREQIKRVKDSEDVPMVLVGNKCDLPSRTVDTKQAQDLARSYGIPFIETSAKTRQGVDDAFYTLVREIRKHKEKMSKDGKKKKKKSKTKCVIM

Structure (SMILES)	IC50 (KRas(G12V))	IC50 (KRas)
Cc1cc(N)nc(-c2c(Cl)c3c4c(nc(OC[C@H]5CC[C@@H]6CO[C@@H](C)CN56)nc4c2F)N([C@H](C)c2cccnc2N)CCO3)c1C(F)(F)F (atropisomer, axis not shown; (aR)) [Example 93b, 6-((R)-4-((R)-1-(2-aminopyridin-3-yl)ethyl)-8-chloro-10-fluoro-2-(((3S,6R,8aR)-3-methylhexahydro-1H-pyrrolo[2,1-c][1,4]oxazin-6-yl)methoxy)-5,6-dihydro-4H-[1,4]oxazepino[5,6,7-de]quinazolin-9-yl)-4-methyl-5-(trifluoromethyl)pyridin-2-amine]	0.14 nM	0.35 nM
Cc1cc(N)nc(-c2c(Cl)c3c4c(nc(OC[C@H]5CC[C@@H]6CN(CC(F)(F)F)CCN56)nc4c2F)N([C@H](C)c2cccnc2N)CCO3)c1C(F)(F)F (atropisomer, axis not shown; (aR)) [Example 129b, 6-((R)-4-((R)-1-(2-aminopyridin-3-yl)ethyl)-8-chloro-10-fluoro-2-(((6R,8aR)-2-(2,2,2-trifluoroethyl)octahydropyrrolo[1,2-a]pyrazin-6-yl)methoxy)-5,6-dihydro-4H-[1,4]oxazepino[5,6,7-de]quinazolin-9-yl)-4-methyl-5-(trifluoromethyl)pyridin-2-amine]	0.32 nM	0.39 nM
Cc1cc(N)nc(-c2c(Cl)c3c4c(nc(OC[C@@H]5CC[C@H]6CO[C@@H](C)CN56)nc4c2F)N([C@H](C)c2cccnc2N)CCO3)c1C(F)(F)F (atropisomer, axis not shown; (aS)) [Example 93a, 6-((R)-4-((R)-1-(2-aminopyridin-3-yl)ethyl)-8-chloro-10-fluoro-2-(((3S,6S,8aS)-3-methylhexahydro-1H-pyrrolo[2,1-c][1,4]oxazin-6-yl)methoxy)-5,6-dihydro-4H-[1,4]oxazepino[5,6,7-de]quinazolin-9-yl)-4-methyl-5-(trifluoromethyl)pyridin-2-amine]	0.09 nM	0.201 nM
Cc1cc(N)nc(-c2c(Cl)c3c4c(nc(OC[C@@H]5CC[C@H]6CO[C@H](C)CN56)nc4c2F)N([C@H](C)c2cccnc2N)CCO3)c1C(F)(F)F (atropisomer, axis not shown; (aS)) [Example 93c, 6-((R)-4-((R)-1-(2-aminopyridin-3-yl)ethyl)-8-chloro-10-fluoro-2-(((3R,6S,8aS)-3-methylhexahydro-1H-pyrrolo[2,1-c][1,4]oxazin-6-yl)methoxy)-5,6-dihydro-4H-[1,4]oxazepino[5,6,7-de]quinazolin-9-yl)-4-methyl-5-(trifluoromethyl)pyridin-2-amine]	0.07 nM	0.145 nM
C[C@H](c1cccnc1N)N1CCOc2c(Cl)c(-c3cccc4sc(N)nc34)c(F)c3nc(OC[C@@]45CCCN4C[C@H](F)C5)nc1c23 (atropisomer, axis not shown; (aS)) [Example 100a, 4-((R)-4-((R)-1-(2-aminopyridin-3-yl)ethyl)-8-chloro-10-fluoro-2-(((2R,7aS)-2-fluorotetrahydro-1H-pyrrolizin-7a(5H)-yl)methoxy)-5,6-dihydro-4H-[1,4]oxazepino[5,6,7-de]quinazolin-9-yl)benzo[d]thiazol-2-amine]	0.03 nM	0.03 nM
C[C@H](c1cccnc1N)N1CCOc2c(Cl)c(-c3cccc4sc(N)nc34)c(F)c3nc(OC[C@@]45CCCN4C[C@H](F)C5)nc1c23 (atropisomer, axis not shown; (aS)) [Example 100b, 4-((S)-4-((R)-1-(2-aminopyridin-3-yl)ethyl)-8-chloro-10-fluoro-2-(((2R,7aS)-2-fluorotetrahydro-1H-pyrrolizin-7a(5H)-yl)methoxy)-5,6-dihydro-4H-[1,4]oxazepino[5,6,7-de]quinazolin-9-yl)benzo[d]thiazol-2-amine]	0.73 nM	0.353 nM
Cc1cc(N)nc(-c2c(Cl)c3c4c(nc(OC[C@@H]5CC[C@H]6COCCN65)nc4c2F)N([C@H](C)c2nccnc2N)CCO3)c1C(F)(F)F (atropisomer, axis not shown; (aS)) [Example 104b, 3-((R)-1-((S)-9-(6-amino-4-methyl-3-(trifluoromethyl)pyridin-2-yl)-8-chloro-10-fluoro-2-(((6S,8aS)-hexahydro-1H-pyrrolo[2,1-c][1,4]oxazin-6-yl)methoxy)-5,6-dihydro-4H-[1,4]oxazepino[5,6,7-de]quinazolin-4-yl)ethyl)pyrazin-2-amine]	16 nM	35.2 nM
Cc1cc(N)nc(-c2c(Cl)c3c4c(nc(OC[C@@H]5CC[C@H]6CN(CC(F)(F)F)CCN56)nc4c2F)N([C@H](C)c2cccnc2N)CCO3)c1C(F)(F)F (atropisomer, axis not shown; (aS)) [Example 129a, 6-((R)-4-((R)-1-(2-aminopyridin-3-yl)ethyl)-8-chloro-10-fluoro-2-(((6S,8aS)-2-(2,2,2-trifluoroethyl)octahydropyrrolo[1,2-a]pyrazin-6-yl)methoxy)-5,6-dihydro-4H-[1,4]oxazepino[5,6,7-de]quinazolin-9-yl)-4-methyl-5-(trifluoromethyl)pyridin-2-amine]	0.31 nM	0.232 nM

Next, values leading:

IC50 (KRas(G12V))	IC50 (KRas)	Structure (SMILES)
97 nM	680 nM	Cc1cc(N)nc(-c2c(Cl)c3c4c(nc(OC[C@@H]5CCCN5CC(F)F)nc4c2F)N([C@H](C)c2nccnc2N)CCO3)c1C(F)(F)F (atropisomer, axis not shown) [Example 158b, 3-((R)-1-((S)-9-(6-amino-4-methyl-3-(trifluoromethyl)pyridin-2-yl)-8-chloro-2-(((S)-1-(2,2-difluoroethyl)pyrrolidin-2-yl)methoxy)-10-fluoro-5,6-dihydro-4H-[1,4]oxazepino[5,6,7-de]quinazolin-4-yl)ethyl)pyrazin-2-amine]
0.69 nM	2.14 nM	Cc1cc(N)nc(-c2c(Cl)c3c4c(nc(OC[C@@]56CCCN5CC(F)(F)C6)nc4c2F)N([C@H](C)c2nccnc2N)CCO3)c1C(F)(F)F (atropisomer, axis not shown) [Example 165a, 3-((R)-1-((R)-9-(6-amino-4-methyl-3-(trifluoromethyl)pyridin-2-yl)-8-chloro-2-(((S)-2,2-difluorotetrahydro-1H-pyrrolizin-7a(5H)-yl)methoxy)-10-fluoro-5,6-dihydro-4H-[1,4]oxazepino[5,6,7-de]quinazolin-4-yl)ethyl)pyrazin-2-amine]
890 nM	2000 nM	Cc1cc(N)nc(-c2c(Cl)c3c4c(nc(OC[C@@]56CCCN5CC(F)(F)C6)nc4c2F)N([C@H](C)c2nccnc2N)CCO3)c1C(F)(F)F (atropisomer, axis not shown) [Example 165b, 3-((R)-1-((S)-9-(6-amino-4-methyl-3-(trifluoromethyl)pyridin-2-yl)-8-chloro-2-(((S)-2,2-difluorotetrahydro-1H-pyrrolizin-7a(5H)-yl)methoxy)-10-fluoro-5,6-dihydro-4H-[1,4]oxazepino[5,6,7-de]quinazolin-4-yl)ethyl)pyrazin-2-amine]
0.56 nM	2.06 nM	Cc1cc(N)nc(-c2c(Cl)c3c4c(nc(OC[C@]56CCCN5CC(F)(F)C6)nc4c2F)N([C@H](C)c2nccnc2N)CCO3)c1C(F)(F)F (atropisomer, axis not shown) [Example 166a, 3-((R)-1-((R)-9-(6-amino-4-methyl-3-(trifluoromethyl)pyridin-2-yl)-8-chloro-2-(((R)-2,2-difluorotetrahydro-1H-pyrrolizin-7a(5H)-yl)methoxy)-10-fluoro-5,6-dihydro-4H-[1,4]oxazepino[5,6,7-de]quinazolin-4-yl)ethyl)pyrazin-2-amine]
640 nM	1730 nM	Cc1cc(N)nc(-c2c(Cl)c3c4c(nc(OC[C@]56CCCN5CC(F)(F)C6)nc4c2F)N([C@H](C)c2nccnc2N)CCO3)c1C(F)(F)F (atropisomer, axis not shown) [Example 166b, 3-((R)-1-((S)-9-(6-amino-4-methyl-3-(trifluoromethyl)pyridin-2-yl)-8-chloro-2-(((R)-2,2-difluorotetrahydro-1H-pyrrolizin-7a(5H)-yl)methoxy)-10-fluoro-5,6-dihydro-4H-[1,4]oxazepino[5,6,7-de]quinazolin-4-yl)ethyl)pyrazin-2-amine]
0.7 nM	2.2 nM	Cc1cc(N)nc(-c2c(Cl)c3c4c(nc(OC[C@@H]5C[C@@]6(CN5C)CC6(F)F)nc4c2F)N([C@H](C)c2nccnc2N)CCO3)c1C(F)(F)F (atropisomer, axis not shown) [Example 171a, 3-((R)-1-((R)-9-(6-amino-4-methyl-3-(trifluoromethyl)pyridin-2-yl)-8-chloro-2-(((3S,6S)-1,1-difluoro-5-methyl-5-azaspiro[2.4]heptan-6-yl)methoxy)-10-fluoro-5,6-dihydro-4H-[1,4]oxazepino[5,6,7-de]quinazolin-4-yl)ethyl)pyrazin-2-amine]
900 nM	2090 nM	Cc1cc(N)nc(-c2c(Cl)c3c4c(nc(OC[C@@H]5C[C@@]6(CN5C)CC6(F)F)nc4c2F)N([C@H](C)c2nccnc2N)CCO3)c1C(F)(F)F (atropisomer, axis not shown) [Example 171b, 3-((R)-1-((S)-9-(6-amino-4-methyl-3-(trifluoromethyl)pyridin-2-yl)-8-chloro-2-(((3S,6S)-1,1-difluoro-5-methyl-5-azaspiro[2.4]heptan-6-yl)methoxy)-10-fluoro-5,6-dihydro-4H-[1,4]oxazepino[5,6,7-de]quinazolin-4-yl)ethyl)pyrazin-2-amine]
